Drawing on article PMC9154759 (2022), this text covers binding for 1 compound.

In the test the test system is aptamer 1 (DNA, aptamer) GGGAGCTCAGAATAAACGCTCAATACTATCGCGGAGACAGCGCGGGAGGCACCGGGGAGATCCGGGCCTCATGTCGAA
Description: berberine fluorescence enhancement (ex 365 nm, em 530 nm). The note with it: 37 °C, 30 min; 50 μg/mL berberine, 0-280 nM aptamer, plateau at 200 nM; binding buffer not stated.

For `COc1ccc2cc3[n+](cc2c1OC)CCc1cc2c(cc1-3)OCO2`, the binding entry was “yes”.
